Data as given in PMC6132687, “Stem cells are the most sensitive screening tool to identify toxicity of GATA4-targeted novel small-molecule compounds” (Archives of Toxicology, 2018).

Tests used:
[1] = test system: caspase-3/7 activity in hiPSCs; experiment: High-content analysis of caspase-3/7 activation in hiPSCs; assay type: cell-based, human; conditions: 4-h exposure
Experimental: To study caspase activation, the cells were exposed to the test compounds for 4 h and then incubated with 3–5 µM CellEvent™ Caspase-3/7 Green Detection Reagent solution in PBS with 5% FBS for 50 min and stained with Hoechst for 10 min at 37 °C. Cells were fixed with 4% PFA and scanned with CellInsight using the 10× objective, or alternatively, the staining solution was replaced with fresh 5% FBS in PBS followed by live cell imaging with CellInsight. Hoechst fluorescence was used to identify the cells and define the nuclear area. The intensity of green fluorescence within the nucleus was quantified as a measure of caspase 3/7 activity.

[2] = test system: hiPSCs; experiment: High-content analysis of proliferation (Ki67, BrdU, DNA) in hiPSCs; assay type: cell-based, human; conditions: 24 h
Experimental: (§1) For proliferation studies, the cells were exposed to the test compounds for 24 h and 10 µM BrdU was added to the culture medium for the last 1 h (hiPSCs) or 24 h (hiPSC-CMs) before fixation with 4% paraformaldehyde (PFA) for 15 min at room temperature (rt). The cells were then permeabilized with 0.1% Triton X-100 for 10 min and DNA was hydrolysed with 2 M hydrochloric acid for 30 min at rt followed by neutralization with 0.1 M sodium borate (pH 8.5) for 30 min. Non-specific binding sites were blocked with 4% FBS in phosphate-buffered saline (PBS) for 45 min at rt, whereafter the cells were incubated with anti-Ki67 (1:250) and anti-BrdU (1:250) antibodies for 60 min at rt. Cells were then washed 3 × 5 min with PBS and incubated with Alexa Fluor-conjugated secondary antibodies (1:200) and DAPI (5 µg/ml) for 45 min at rt. In hiPSC-CM cultures, staining with primary antibody against α-actinin (at 1:600) was additionally used to identify myocytes. The plates were imaged and analysed with CellInsight CX5 High Content Screening Platform (Thermo Scientific) using a 10× objective (Olympus UPlanFL N 10×/0.3). For quantification, the cells were first identified based on DAPI fluorescence, which defined the nuclear area for quantifications. In hiPSC-CM cultures, non-myocytes were excluded based on absence of α-actinin staining and nuclear area. The thresholds for α-actinin fluorescence intensity and nuclear area were set manually in each experiment to allow optimal exclusion of non-myocytes. In hiPSC-CMs cultures, the data were collected only from α-actinin positive cells. The thresholds for Ki67+ and BrdU+ cells were also set manually in each experiment as described previously (Mioulane et al. [2012]) to adjust for slight variation in staining intensity.

[3] = test system: hiPSCs; experiment: High-content analysis of cell viability (MitoTracker) in hiPSCs; assay type: cell-based, human; conditions: 24 h
Experimental: To study mitochondrial function using high-content analysis, the cells were plated and treated as in proliferation studies, except that MitoTracker Orange CMTMRos solution (400 nM) was added to the cells for the last 30 min at 37 °C. The accumulation of the MitoTracker probe used is dependent upon mitochondrial membrane potential allowing selective staining of active mitochondria. Following fixation and permeabilization, hiPSC-CMs were in addition stained with anti-α-actinin (Alexa Fluor 488) and DAPI. Cells were identified and hiPSC-CMs discriminated from non-myocytes as described above. MitoTracker intensity corresponding to active mitochondria was analysed in the perinuclear area defined by a 3-pixel ring or a 5-pixel ring around the nucleus in hiPSCs and hiPSC-CMs, respectively. The fluorescence intensity threshold was set manually in each experiment based on the assumption that 2% of control hiPSC-CMs and 5% of control hiPSCs were MitoTracker negative.

[4] = test system: hiPSC-CMs; experiment: High-content analysis of proliferation (Ki67, BrdU, DNA) in hiPSC-CMs; assay type: cell-based, human; conditions: 24 h; for average intensity of nuclear Ki67 staining / increase in the percentage of Ki67+ cells compared to DMSO: 30 µM
Experimental: as §1

[5] = test system: extracellular signal-regulated kinase 1/2 signalling; set-up: method as in Ferreira et al. [2017]; conditions: systemic administration in heart-targeted nanoparticles; ref Ferreira et al. [2017]; cited from earlier work

CCN(CC)c1ccc(NC(=O)c2c(C)noc2-c2cc(C)on2)cc1 [3i-1047]
effect on caspase-3/7 activity [1]: no effect
corresponding average staining intensities (Ki67, BrdU, DNA) ([2]; 1 or 10 µM): no effect
percentage of BrdU+ cells ([2]; 1 or 10 µM): no effect
percentage of Ki67+ cells ([2]; 1 or 10 µM): no effect
percentage of high DNA cells ([2]; 1 or 10 µM): no effect
effect on MitoTracker staining [3]: did not affect MitoTracker staining
average intensity of nuclear Ki67 staining ([4]; hiPSC-CMs): substantial increases
increase in the percentage of Ki67+ cells compared to DMSO ([4]; hiPSC-CMs): 1.5 fold
average intensity of nuclear BrdU staining ([4]; hiPSC-CMs): no effect
average total intensity of DNA staining ([4]; hiPSC-CMs): neither 3i-1000 nor 3i-1047 caused significant changes
percentage of BrdU+ cells ([4]; hiPSC-CMs): no effect
percentage of cells with high total intensity of DNA staining ([4]; hiPSC-CMs): neither 3i-1000 nor 3i-1047 caused significant changes

CCN(CC)c1ccc(NC(=O)c2c(-c3ccccc3)noc2C)cc1 [3i-1000]
increase in cells positive for the fluorescent caspase reporter ([1]; vs DMSO): 3.2 fold
proportion of BrdU-positive cells ([2]; 1 µM): not at 1 µM
proportion of Ki67 positive cells ([2]; 1 µM): not at 1 µM
proportion of BrdU-positive cells ([2]; 10 µM): decreased
proportion of Ki67 positive cells ([2]; 10 µM): decreased
average intensity of nuclear BrdU staining [2]: decreased average intensity
average intensity of nuclear Ki67 staining [2]: decreased average intensity
cell numbers [2]: significantly reduced
decrease in the average total intensity of DNA staining [2]: 66%
decrease in cells with high total DNA staining intensity (G2 phase) ([2]; P = 0.062): 77%
pro-hypertrophic ERK1/2 signalling in the hypoxic endocardial layer of the left ventricle [5]: inhibits
average MitoTracker intensity in the perinuclear area ([3]; 10 µM): reduced substantially
increase in the percentage of MitoTracker negative cells as compared to DMSO ([3]; 10 µM): 5.7 fold
reduction of hiPSC cell numbers ([3]; 10 µM): 98%
decrease in BrdU+ hiPSC-CMs as compared to DMSO ([4]; P = 0.233): 43%
average intensity of nuclear Ki67 staining ([4]; hiPSC-CMs): substantial increases
increase in the percentage of Ki67+ cells compared to DMSO ([4]; hiPSC-CMs): 1.7 fold
average intensity of nuclear BrdU staining ([4]; hiPSC-CMs): tendency for 3i-1000 to induce a decrease
average total intensity of DNA staining ([4]; hiPSC-CMs): neither 3i-1000 nor 3i-1047 caused significant changes
percentage of cells with high total intensity of DNA staining ([4]; hiPSC-CMs): neither 3i-1000 nor 3i-1047 caused significant changes
